Results from paper PMC3441526, “KCN1, a Novel Synthetic Sulfonamide Anticancer Agent: In Vitro and In Vivo Anti-Pancreatic Cancer Activities and Preclinical Pharmacology” (PLoS ONE, 2012).
Where two headings read alike, the source gives them in different places.

Assays:
Panc-1 cells = test: Anchorage-independent growth assay (soft agar); format: cell-based, human; conditions: Panc-1, soft agar, 14 days
Protocol: (§1) Pancreatic cancer cells were treated with various concentrations of KCN1 in 0.8 ml of 0.35% agar containing 10% FBS. The cultures were maintained in 37°C, 5% CO2 incubator for two weeks. Then, cell colonies were observed and scored under a microscope.

HPAC cells = test: Anchorage-independent growth assay (soft agar); format: cell-based, human; conditions: 14 days
Protocol: as §1

[1] = Tolerability on repeated intraperitoneal dosing; format: in vivo, mice
[2] = Pharmacokinetic study in mice; format: in vivo, CD-1 mice; conditions: for dose recovered as parental KCN1 from urine: first 24 hr
Protocol: (§2) Female CD-1 and nude mice were administered 35 mg/kg body weight of KCN1 as either a single intravenous injection via a tail vein or via an intraperitoneal injection. At selected time points after dosing, groups of three mice/time point were subjected to a retro-orbital bleed. The blood was collected into heparinized tubes, and plasma was separated by centrifugation. Tissues (brain, skeletal muscle, kidneys, liver, spleen, and heart) were collected by necropsy. Urine and feces were collected on ice for 24 h from mice housed in metabolic cages (n = 3/study). The collection containers and cages were washed twice with 0.9% saline solution, and each urine collection and each wash was analyzed separately, then values were added together for each mouse to determine the total KCN1 present in urine during the collection period. Pharmacokinetic values were derived using Phoenix WinNonlin Version 6.0 (Mountain View, CA).
(§3) An HPLC protocol was developed to detect KCN1 in different matrices (plasma, urine or tissue homogenates) using an Agilent 1120 instrument. KCN1 was separated on a Zorbax SB-C18 (5 µm, 150 × 4.6 mm) analytical column with a Zorbax Reliance Cartridge Guard Column (SB-C18), and the eluate was monitored by UV at 254 nm. The mobile phase was composed of “A” (methanol +0.1% Et3N)-“B” (ddH2O+0.1% Et3N) (80∶20, v/v). Prior to application, the mobile phase was filtered and degassed using a Millipore glass filter system with a nylon membrane (0.2 µm). The peaks for KCN1 were used to establish standard curves and for quantitative analysis of samples. Quantification of the compound was achieved by determination of the peak area at the retention time of approximately 4.4 minutes.
(§4) Plasma (100 µL) was mixed with 200 µL of methanol, vortexed, and centrifuged to remove precipitated proteins. The supernatant was evaporated to dryness under a stream of air. The residue was dissolved in 100 µL of the mobile phase, and 10 µL was injected onto the HPLC system for analysis. Weighed tissues were homogenized in two to five volumes of PBS (based on the weight of the tissue samples), and portions of the homogenates were processed in the same manner as the plasma samples.

glioma cells = test system: glioma cells; parameters: method as in PMID 22923450; conditions: glioma cells ref 31; cited from earlier work
[3] = Pharmacokinetic study in mice; format: in vivo, nude mice (nu/nu); conditions: for dose recovered as parental KCN1 from urine: first 24 hr
Protocol: as §2, §3, §4

[4] = CD-1 mice, 35 mg/kg, either route
[5] = nude mice, 35 mg/kg, either route

For COc1ccc(S(=O)(=O)N(Cc2ccc3c(c2)C=CC(C)(C)O3)c2ccccc2)cc1OC [KCN1, 3,4-dimethoxy-N-[(2,2-dimethyl-2H-chromen-6-yl)methyl]-N-phenylbenzenesulfonamide], the “decrease in number of colonies formed” value (Panc-1 cells) was 3 fold, the “decrease in number of colonies formed” value (HPAC cells) was 4 fold and the “pathological examination of brain, kidneys, GI tract or lungs at necropsy” value ([1]; data not shown) was “no ultra-structural changes”. For the same compound, the “signs of toxicity, behavior and appearance” value ([1]; i.p. up to 60 mg/kg daily for up to 12 weeks) was “no apparent signs of toxicity”, the tolerability of regimen ([1]; i.p. up to 60 mg/kg daily in cremophor:ethanol for up to 12 weeks) was “well tolerated” and the “time to reversal of liver swelling after discontinuation of treatment” value ([1]; mouse, in vivo) was 2–3 weeks. The “blood cell populations and blood chemistry” value ([1]; preliminary analyses, data not shown) was “within normal limits”, the “liver finding at autopsy” value ([1]; tissue edema with bile duct stasis, no hepatocyte death, may be caused by cremophor:ethanol formulation) was “Swelling was observed in the livers” and the “dose recovered as parental KCN1 from urine” value (from here on “dose recovered”) ([2]; CD-1 mice, 35 mg/kg I.P.) was “less than 0.5%”. For the same compound, the “dose recovered” value ([2]; CD-1 mice, 35 mg/kg intravenously) was “less than 1%”, the detection in brain [2, 4] was “could not be detected after 6 h” and the “time detectable in heart, lungs, liver, spleen, kidneys and skeletal muscle” value [2, 4] was “at least 24 h”. For the same compound, the “time plasma concentration still detectable” value ([2]; CD-1 mice, I.P. 35 mg/kg) was at least 24 h, the “time plasma concentration still detectable” value ([2]; CD-1 mice, I.V. 35 mg/kg) was “at least 6 h” and the Tmax ([2]; female, mouse, plasma, ip, CD-1 mice, I.P. 35 mg/kg, read-out: time of maximum plasma level (converted)) was 0.5 h. The concentration at 6 h ([2]; female, mouse, plasma, iv, CD-1 mice, I.V. 35 mg/kg, 6 h after dosing) was under 300 ng/mL, the concentration at 5 min ([2]; female, mouse, plasma, iv, CD-1 mice, bolus I.V. 35 mg/kg, 5 minutes) was 9980 ng/mL and the half-life ([2]; female, mouse, Brain, CD-1, IP 35 mg/kg) was 3.13 h. It also gave a Tmax ([2]; female, mouse, Brain, CD-1, IP 35 mg/kg, read-out: Tmax) of 1 h, a half-life ([2]; female, mouse, Brain, CD-1, IV 35 mg/kg) of 0.53 h and a Tmax ([2]; female, mouse, Brain, CD-1, IV 35 mg/kg, read-out: Tmax) of 0.08 h. The half-life ([2]; female, mouse, Heart, CD-1, IP 35 mg/kg) was 2.19 h, the Tmax ([2]; female, mouse, Heart, CD-1, IP 35 mg/kg, read-out: Tmax) was 0.17 h and the half-life ([2]; female, mouse, Heart, CD-1, IV 35 mg/kg) was 22.1 h. The Tmax ([2]; female, mouse, Heart, CD-1, IV 35 mg/kg, read-out: Tmax) was 0.08 h, the half-life ([2]; female, mouse, Kidneys, CD-1, IP 35 mg/kg) was 2.5 h and the Tmax ([2]; female, mouse, Kidneys, CD-1, IP 35 mg/kg, read-out: Tmax) was 0.08 h. It also gave a half-life ([2]; female, mouse, Kidneys, CD-1, IV 35 mg/kg) of 18.8 h, a Tmax ([2]; female, mouse, Kidneys, CD-1, IV 35 mg/kg, read-out: Tmax) of 0.08 h and a half-life ([2]; female, mouse, Liver, CD-1, IP 35 mg/kg) of 3.5 h. It also gave a Tmax ([2]; female, mouse, Liver, CD-1, IP 35 mg/kg, read-out: Tmax) of 4 h, a half-life ([2]; female, mouse, Liver, CD-1, IV 35 mg/kg) of 1.15 h and a Tmax ([2]; female, mouse, Liver, CD-1, IV 35 mg/kg, read-out: Tmax) of 0.08 h. The half-life ([2]; female, mouse, Lungs, CD-1, IP 35 mg/kg) was 2.27 h, the Tmax ([2]; female, mouse, Lungs, CD-1, IP 35 mg/kg, read-out: Tmax) was 0.25 h and the half-life ([2]; female, mouse, Lungs, CD-1, IV 35 mg/kg) was 23.3 h. The Tmax ([2]; female, mouse, Lungs, CD-1, IV 35 mg/kg, read-out: Tmax) was 2 h, the half-life ([2]; female, mouse, Muscle, CD-1, IP 35 mg/kg) was 1.86 h and the Tmax ([2]; female, mouse, Muscle, CD-1, IP 35 mg/kg, read-out: Tmax) was 0.17 h. The half-life ([2]; female, mouse, Muscle, CD-1, IV 35 mg/kg) was 1.52 h, the Tmax ([2]; female, mouse, Muscle, CD-1, IV 35 mg/kg, read-out: Tmax) was 0.08 h and the half-life ([2]; female, mouse, Plasma, CD-1, IP 35 mg/kg) was 7.35 h. It also gave a half-life ([2]; female, mouse, Plasma, CD-1, IV 35 mg/kg) of 0.16 h, a half-life ([2]; female, mouse, Spleen, CD-1, IP 35 mg/kg) of 2.35 h and a Tmax ([2]; female, mouse, Spleen, CD-1, IP 35 mg/kg, read-out: Tmax) of 2 h. The half-life ([2]; female, mouse, Spleen, CD-1, IV 35 mg/kg) was 0.46 h, the Tmax ([2]; female, mouse, Spleen, CD-1, IV 35 mg/kg, read-out: Tmax) was 0.08 h and the cytostatic effect (glioma cells) was “little cytostatic effect”. For the same compound, the Tmax ([3]; female, nude (nu/nu), mouse, plasma, ip, nude mice, I.P. 35 mg/kg, read-out: time of maximum plasma level) was 2 h, the concentration at 6 h ([3]; female, nude (nu/nu), mouse, plasma, iv, nude mice, I.V. 35 mg/kg, 6 h after dosing) was under 300 ng/mL and the concentration at 5 min ([3]; female, nude (nu/nu), mouse, plasma, iv, nude mice, bolus I.V. 35 mg/kg, 5 minutes) was 5190 ng/mL. For the same compound, the half-life ([3]; female, nude (nu/nu), mouse, Brain, Nu/nu, IP 35 mg/kg) was 0.95 h, the Tmax ([3]; female, nude (nu/nu), mouse, Brain, Nu/nu, IP 35 mg/kg, read-out: Tmax) was 1 h and the half-life ([3]; female, nude (nu/nu), mouse, Brain, Nu/nu, IV 35 mg/kg) was 3.38 h. For the same compound, the Tmax ([3]; female, nude (nu/nu), mouse, Brain, Nu/nu, IV 35 mg/kg, read-out: Tmax) was 0.08 h, the half-life ([3]; female, nude (nu/nu), mouse, Heart, Nu/nu, IP 35 mg/kg) was 1.22 h and the Tmax ([3]; female, nude (nu/nu), mouse, Heart, Nu/nu, IP 35 mg/kg, read-out: Tmax) was 0.08 h. For the same compound, the half-life ([3]; female, nude (nu/nu), mouse, Heart, Nu/nu, IV 35 mg/kg) was 0.36 h, the Tmax ([3]; female, nude (nu/nu), mouse, Heart, Nu/nu, IV 35 mg/kg, read-out: Tmax) was 4 h and the half-life ([3]; female, nude (nu/nu), mouse, Kidneys, Nu/nu, IP 35 mg/kg) was 22.4 h. The Tmax ([3]; female, nude (nu/nu), mouse, Kidneys, Nu/nu, IP 35 mg/kg, read-out: Tmax) was 0.25 h, the half-life ([3]; female, nude (nu/nu), mouse, Kidneys, Nu/nu, IV 35 mg/kg) was 1.8 h and the Tmax ([3]; female, nude (nu/nu), mouse, Kidneys, Nu/nu, IV 35 mg/kg, read-out: Tmax) was 0.08 h. For the same compound, the half-life ([3]; female, nude (nu/nu), mouse, Liver, Nu/nu, IP 35 mg/kg) was 2.52 h, the Tmax ([3]; female, nude (nu/nu), mouse, Liver, Nu/nu, IP 35 mg/kg, read-out: Tmax) was 0.5 h and the half-life ([3]; female, nude (nu/nu), mouse, Liver, Nu/nu, IV 35 mg/kg) was 3.39 h. It also gave a Tmax ([3]; female, nude (nu/nu), mouse, Liver, Nu/nu, IV 35 mg/kg, read-out: Tmax) of 2 h, a half-life ([3]; female, nude (nu/nu), mouse, Lungs, Nu/nu, IP 35 mg/kg) of 1.04 h and a Tmax ([3]; female, nude (nu/nu), mouse, Lungs, Nu/nu, IP 35 mg/kg, read-out: Tmax) of 1 h. For the same compound, the half-life ([3]; female, nude (nu/nu), mouse, Lungs, Nu/nu, IV 35 mg/kg) was 2 h, the Tmax ([3]; female, nude (nu/nu), mouse, Lungs, Nu/nu, IV 35 mg/kg, read-out: Tmax) was 0.25 h and the half-life ([3]; female, nude (nu/nu), mouse, Muscle, Nu/nu, IP 35 mg/kg) was 2.97 h. The Tmax ([3]; female, nude (nu/nu), mouse, Muscle, Nu/nu, IP 35 mg/kg, read-out: Tmax) was 0.25 h, the half-life ([3]; female, nude (nu/nu), mouse, Muscle, Nu/nu, IV 35 mg/kg) was 2.28 h and the Tmax ([3]; female, nude (nu/nu), mouse, Muscle, Nu/nu, IV 35 mg/kg, read-out: Tmax) was 0.08 h. It also gave a half-life ([3]; female, nude (nu/nu), mouse, Plasma, Nu/nu, IP 35 mg/kg) of 2.65 h, a half-life ([3]; female, nude (nu/nu), mouse, Plasma, Nu/nu, IV 35 mg/kg) of 0.6 h and a half-life ([3]; female, nude (nu/nu), mouse, Spleen, Nu/nu, IP 35 mg/kg) of 0.81 h. The Tmax ([3]; female, nude (nu/nu), mouse, Spleen, Nu/nu, IP 35 mg/kg, read-out: Tmax) was 24 h, the half-life ([3]; female, nude (nu/nu), mouse, Spleen, Nu/nu, IV 35 mg/kg) was 1.4 h and the Tmax ([3]; female, nude (nu/nu), mouse, Spleen, Nu/nu, IV 35 mg/kg, read-out: Tmax) was 2 h. The “dose recovered” value ([3]; nude mice, 35 mg/kg I.P.) was “less than 0.5%”, the “dose recovered” value ([3]; nude mice, 35 mg/kg intravenously) was “less than 1%” and the detection in brain [3, 5] was “could not be detected after 6 h”. For the same compound, the “time detectable in heart, lungs, liver, spleen, kidneys and skeletal muscle” value [3, 5] was “at least 24 h”, the “time plasma concentration still detectable” value ([3]; nude mice, I.P. 35 mg/kg) was at least 24 h and the “time plasma concentration still detectable” value ([3]; nude mice, I.V. 35 mg/kg) was “at least 6 h”.
